# Several values for one entry are separate records, joined by “and”; a condition that tells them apart may be missing. Equal entries are not always repeated. Toxic doses and inconclusive results are not listed.
# Tested on: P388 leukemia ip, CD2F1 mice, survival T/C
# Test: NCI In Vivo Anticancer Drug Screen. Data for tumor model P388 Leukemia (intraperitoneal) in CD2F1 (CDF1) mice
# Settings: endpoint: median survival time, higher = longer survival
# Outline: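 Mice carrying the transplanted tumor received test compound or vehicle. Survival was recorded in each group, and the value is the treated-group measurement divided by that of the vehicle-treated control group.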
# [1] = dose: 50.0 mg/kg/injection, schedule: Q01DX005 (ip), vehicle: Klucel (hydroxypropylcellulose) (HPC)
# [2] = dose: 100.0 mg/kg/injection, schedule: Q01DX005 (ip), vehicle: Klucel (hydroxypropylcellulose) (HPC)
# [3] = dose: 200.0 mg/kg/injection, schedule: Q01DX005 (ip), vehicle: Klucel (hydroxypropylcellulose) (HPC)
# [4] = dose: 60.0 mg/kg/injection, schedule: Q01DX005 (ip), vehicle: saline with Tween-80
# [5] = dose: 240.0 mg/kg/injection, schedule: Q01DX005 (ip), vehicle: saline with Tween-80
compound,measurement,setting,value
O=C(OCc1ccccc1)N(CCF)c1cn(Cc2ccccc2)c(=O)n(Cc2ccccc2)c1=O,T/C,[1],93 % of control
same,T/C,[2],96 % of control
same,T/C,[3],87 % of control
C[CH2][Sn]([CH2]C)([n]1c2ccccc2c2c(C)c3cnccc3c(C)c21)[n]1c2ccccc2c2c(C)c3cnccc3c(C)c21,T/C,"dose: 1.56 mg/kg/injection, schedule: Q01DX005 (ip), vehicle: Klucel (hydroxypropylcellulose) (HPC)",118 % of control
same,T/C,"dose: 6.25 mg/kg/injection, schedule: Q01DX005 (ip), vehicle: Klucel (hydroxypropylcellulose) (HPC)",155 % of control
O=C(O)CNC(=S)C(=S)NCC(=O)O,T/C,[1],101 % of control
same,T/C,[2],97 % of control
same,T/C,[3],90 % of control
Cc1cc(/C=C/c2ccccc2)nc(/C=C/c2ccccc2)c1,T/C,[4],104 % of control
same,T/C,"dose: 120.0 mg/kg/injection, schedule: Q01DX005 (ip), vehicle: saline with Tween-80",97 % of control
same,T/C,[5],100 % of control
CN1CCC(COC(=O)CC(C)(C)C)C1 (centres undefined),T/C,"dose: 3.13 mg/kg/injection, schedule: Q01DX009 (ip), vehicle: water",105 % of control
same,T/C,"dose: 6.25 mg/kg/injection, schedule: Q01DX009 (ip), vehicle: water",100 % of control
same,T/C,"dose: 12.5 mg/kg/injection, schedule: Q01DX009 (ip), vehicle: water",99 % of control
same,T/C,"dose: 25.0 mg/kg/injection, schedule: Q01DX009 (ip), vehicle: water",101 % of control
same,T/C,"dose: 50.0 mg/kg/injection, schedule: Q01DX009 (ip), vehicle: water",105 % of control
same,T/C,"dose: 100.0 mg/kg/injection, schedule: Q01DX009 (ip), vehicle: water",101 % of control
CCCCCCCCCCCCCCOCCS(=O)(=O)O,T/C,[4],86 % of control
same,T/C,[5],100 % of control
Cc1ccc(C2(Br)C(=O)c3ccccc3C2=O)cc1,T/C,"dose: 100.0 mg/kg/injection, schedule: Q04DX002 (ip), vehicle: saline",103 % of control
same,T/C,"dose: 200.0 mg/kg/injection, schedule: Q04DX002 (ip), vehicle: saline",102 % of control
same,T/C,"dose: 400.0 mg/kg/injection, schedule: Q04DX002 (ip), vehicle: saline",101 % of control
CC(=O)Nc1cccc2[nH]c3ccccc3c(=O)c12,T/C,"dose: 50.0 mg/kg/injection, schedule: Q01DX005 (ip), vehicle: saline with Tween-80",95 % of control
same,T/C,"dose: 100.0 mg/kg/injection, schedule: Q01DX005 (ip), vehicle: saline with Tween-80",103 % of control
same,T/C,"dose: 200.0 mg/kg/injection, schedule: Q01DX005 (ip), vehicle: saline with Tween-80",93 % of control
CCOc1c(N=Nc2cccc(Cl)c2)c(-c2ccccc2)nn1C(=S)S,T/C,"dose: 0.78 mg/kg/injection, schedule: Q01DX005 (ip), vehicle: saline with Tween-80",100 % of control
same,T/C,"dose: 1.56 mg/kg/injection, schedule: Q01DX005 (ip), vehicle: saline with Tween-80",99 % of control
same,T/C,"dose: 3.13 mg/kg/injection, schedule: Q01DX005 (ip), vehicle: saline with Tween-80",100 % of control
same,T/C,"dose: 6.25 mg/kg/injection, schedule: Q01DX005 (ip), vehicle: saline with Tween-80",99 % of control and 100 % of control
COc1ccc(C2CC(=O)NC(NC#N)=N2)c(O)c1 (centres undefined),T/C,"dose: 50.0 mg/kg/injection, schedule: Q01DX009 (ip), vehicle: saline",104 % of control
same,T/C,"dose: 100.0 mg/kg/injection, schedule: Q01DX009 (ip), vehicle: saline",102 % of control
same,T/C,"dose: 200.0 mg/kg/injection, schedule: Q01DX009 (ip), vehicle: saline",100 % of control
CCCCN(C(=O)c1ccccc1)c1nc2ccccc2n1C,T/C,"dose: 100.0 mg/kg/injection, schedule: Q04DX003 (ip), vehicle: saline",95 % of control
same,T/C,"dose: 200.0 mg/kg/injection, schedule: Q04DX003 (ip), vehicle: saline",98 % of control
same,T/C,"dose: 400.0 mg/kg/injection, schedule: Q04DX003 (ip), vehicle: saline",99 % of control
C=C(C)C1CC2=C(C(=O)OC)C=C(O2)C(C(=C)C)C2OC(=O)/C(=C\C1O)C2O (centres undefined),T/C,"dose: 4.0 mg/kg/injection, schedule: Q01DX005 (ip), vehicle: saline + alcohol",103 % of control
same,T/C,"dose: 8.0 mg/kg/injection, schedule: Q01DX005 (ip), vehicle: saline + alcohol",103 % of control
same,T/C,"dose: 16.0 mg/kg/injection, schedule: Q01DX005 (ip), vehicle: saline + alcohol",99 % of control
same,T/C,"dose: 32.0 mg/kg/injection, schedule: Q01DX005 (ip), vehicle: saline + alcohol",99 % of control
same,T/C,"dose: 64.0 mg/kg/injection, schedule: Q01DX005 (ip), vehicle: saline + alcohol",101 % of control
Nc1cc(Cl)cc2c1-c1ccc(Cl)cc1C2=O,T/C,"dose: 25.0 mg/kg/injection, schedule: Q01DX005 (ip), vehicle: Klucel (hydroxypropylcellulose) (HPC)",96 % of control
same,T/C,[1],91 % of control
same,T/C,[2],90 % of control
same,T/C,[3],89 % of control

# — PubChem BioAssay AID330 (DTP/NCI, 2004)
